One compound from publication PMC3626250, “Effects of Borneol on Pharmacokinetics and Tissue Distribution of Notoginsenoside R1 and Ginsenosides Rg1 and Re in Panax notoginseng in Rabbits” (Journal of Analytical Methods in Chemistry, 2013) can be followed below.

One data set concerns Caco-2 cell monolayers. The data set can be described thus: TEER values of the Caco-2 cell monolayers. Format: cell-based. The settings on record: 200 μM Borneol with 500 μM NGR1, GRg1 and GRe, Caco-2 monolayers. As for the experimental part: In transport studies, vinblastine-selected Caco-2 cells were seeded on polycarbonate filter of transwells for 18–21 days before starting transport study, and the monolayers with the transepithelial electrical resistance (TEER) values greater than 300 Ωcm^2 were used. Caco-2 monolayers were rinsed twice with Hanks' balanced salt solution (HBSS) and preincubated in HBSS at 37°C for 30 min before starting experiments. To start the experiments, 500 μM of NGR1, GRg1, and GRe in final concentrations were added to the donor side with or without 200 μM Borneol and then incubated at 37°C. An aliquot of 0.1 mL samples were withdrawn from receiver chambers at 0, 30, 60, 90, and 120 min after the loading. After each sampling, 0.1 mL of HBSS was added to the receiver chamber to maintain a constant volume. All the experiments were performed five times in duplicate. […] During the above transport studies, the TEER values were also monitored before and at the end of each experiment. Apparent permeability coefficients (P app) were then calculated according to the following equation: (1) Papp=(dC/dt×V)/(A×C0), where dC/dt is the rate of the test compound appearing in the receiver chamber, V is the volume of the solution in the receiver chamber, A is the cell monolayer surface area, and C 0 is the initial concentration of the test compound added in the donor chamber. […]

The test system of the next data set is Caco-2 cells. The data set can be described thus: MTT cytotoxicity assay toward Caco-2 cells. The note with it: chosen for transport study. The data set is classed as cell-based. As for the experimental part: The Caco-2 cells were cultured in Dulbecco's modified Eagle's medium (DMEM) supplemented with 20% foetal bovine serum, 1% nonessential amino acids and penicillin-streptomycin, at 37°C in an atmosphere with a relative humidity of 95% and a CO2 flow of 5%. Medium was replaced every 2-3 days. When the cell monolayer reached 80% confluence, the cells were detached with a solution of 0.02% EDTA and 0.25% trypsin. The vinblastine-selected Caco-2 cells were cultivated in the presence of 10 nM vinblastine to induce P-glycoprotein (P-gp) expression. The culture medium was changed to a fresh medium without vinblastine 24 h before experiments, and the cells were used between passages 25 and 46. Prior to the transport study, cytotoxicity of NGR1, GRg1, GRe, and Borneol toward Caco-2 cells was determined using MTT assays. Noncytotoxic concentrations of 500 μM NGR1, GRg1, GRe, and 200 μM Borneol (dissolved in DMSO) were chosen for transport study.
(In general: Tetrazolium assays rely on reduction of a dye to a coloured formazan, in cell work by metabolically active cells.)

Regarding `CC1(C)C2CCC1(C)C(O)C2` (centres unmarked) [Borneol], in the data set on Caco-2 cell monolayers, the “TEER values of the monolayers decreased reversibly to” value was “about 23%”. The same compound had a Noncytotoxic concentration in the data set on Caco-2 cells of 200 µM.
